Here are results for four molecules from patent US10398703B2, “Therapeutic compounds and uses thereof” (Kala Pharmaceuticals, Inc., priority 2013, dated 2019).

Data set [1] can be described thus: Back of the eye drug exposure (PK) after topical instillation of compound MPP. The data set is classed as in vivo. The settings on record: rabbit, topical or ocular, 50 μL of 0.5% MPP formulation, MPP 0.5%, 50 μL topical BID 5 days, Dutch-belted rabbits, 8 mm punch. From the text:
Dutch-belted rabbits were used in these studies.
The portion of the retina and choroid collected and analyzed was an 8 mm round punch where the macula is located in humans.

The nature of data set [2]: Mobility of MPP nanoparticles in human cervicovaginal mucus (dark field microscopy). The following applies: low pH of human cervicovaginal mucus. Here is the method: In order to determine whether the generated nanoparticles have reduced interactions with mucins and are therefore able to move within mucus without becoming trapped, particles were incubated with human cervicovaginal mucus (CVM) and observed via dark field microscopy. In a typical experiment, […] of the nanoparticle suspension was added to 20 μl of CVM. Observations were made in a minimum of three distinct and randomly selected areas of the CVM sample. Control particles with known behavior were used to qualify the CVM sample as appropriate for the assay. For all compounds (except compound 55) listed in Table 4, mobility in mucus was observed and therefore the nanoparticles were deemed to be effective MPP.

The mark [3] stands for this setting: choroid, read-out: AUC0-last Choroid.
The mark [4] stands for this setting: choroid, read-out: Cmax Choroid.
[5] abbreviates: retina, read-out: AUC0-last Retina.

Molecules are shown by their SMILES. Where two headings read alike, the source gives them in different places.

`COc1cc2c(Oc3ccc(NC(=O)Nc4cc(C)on4)c(Cl)c3)ncnc2cc1OCCCN1CCC2(CC1)COC2` [Compound 9]: the AUC(0-t) in data set [1] (setting [3]) was 5.4 µM·h; in data set [1] (setting [5]), 0.915 µM·h. The Cmax (commonly the maximum level reached in the sampled fluid or tissue) in data set [1] (setting [4]) amounted to 693 nM; in data set [1] (retina, read-out: Cmax Retina) it was 110 nM.

For `COc1cc2c(Oc3ccc(NC(=O)Nc4cc(C)ccc4F)c(Cl)c3)ccnc2cc1OCCCN1CCC2(CC1)COC2` [Compound 25], the figures for the AUC(0-t) in data set [1] (setting [3]) and in data set [1] (setting [5]) were 5.79 µM·h and 0.297 µM·h, respectively. In addition, the Cmax in data set [1] (setting [4]) came to 574 nM; in data set [1] (retina, read-out: Cmax Retina), 33 nM.

With `COc1cc2ncnc(Oc3ccc(NC(=O)Nc4ccc(CN5CCN(C)CC5)cc4)c(Cl)c3)c2cc1OC` [Compound 55], the “solubility in CVM” value in data set [2] is recorded as “soluble in the low pH of CVM”.

For `COc1cc2c(Oc3ccc(NC(=O)Nc4cc(C)ccc4F)c(Cl)c3)ncnc2cc1OCCCN1CCC2(CC1)COC2` [Compound 12], the AUC(0-t) turned out to be 2.45 µM·h in data set [1] (setting [3]) and 0.308 µM·h in data set [1] (setting [5]). Also, the Cmax is 265 nM in data set [1] (setting [4]) and 39 nM in data set [1] (retina, read-out: Cmax Retina).
